Data as given in ChEMBL document CHEMBL4396865, “Current advances of triazole alcohols derived from fluconazole: Design, in vitro and in silico studies” (2019).
Values after ≈ are worked out from the molar mass of the structure shown.

How the values were obtained:
Assay type in all cases: functional
Trichophyton rubrum = experiment: Antifungal activity against Trichophyton rubrum
Candida albicans [1] = experiment: Antifungal activity against Candida albicans
Candida parapsilosis = experiment: Antifungal activity against Candida parapsilosis
Candida tropicalis = experiment: Antifungal activity against Candida tropicalis
Kluyveromyces marxianus = experiment: Antifungal activity against Candida kefyr
Cryptococcus neoformans [2] = experiment: Antifungal activity against Cryptococcus neoformans
Aspergillus fumigatus = experiment: Antifungal activity against Aspergillus fumigatus
Candida albicans [3] = experiment: Antifungal activity against Candida albicans after 24 hrs by NCCLS protocol based method
Cryptococcus neoformans [4] = experiment: Antifungal activity against Cryptococcus neoformans after 72 hrs by NCCLS protocol based method
[5] = Trichophyton rubrum, read-out: MIC
[6] = Lodderomyces parapsilosis, read-out: MIC
[7] = Cryptococcus neoformans, read-out: MIC

SMILES	MIC (Candida albicans [1])	MIC (Candida parapsilosis)	MIC (Candida tropicalis)	MIC (Kluyveromyces marxianus)	MIC (Cryptococcus neoformans [2])	MIC (Trichophyton rubrum)	MIC (Aspergillus fumigatus)	also measured
CCN(Cc1cn(Cc2ccc(Cl)cc2Cl)nn1)CC(O)(Cn1cncn1)c1ccc(F)cc1F (stereo unspecified)								MIC (Trichophyton rubrum; [5]): 3.9 ng/mL (≈ 7.47 nM)
C#CCN(Cc1cccc(Cl)c1)CC(O)(Cn1cncn1)c1ccc(F)cc1F (stereo unspecified)	0.24 to 250 ng/mL	0.24 to 250 ng/mL	0.24 to 250 ng/mL	0.24 to 250 ng/mL	0.24 to 250 ng/mL	0.24 to 250 ng/mL	0.24 to 250 ng/mL	
CCN(Cc1cn(Cc2ccc(Cl)cc2)nn1)CC(O)(Cn1cncn1)c1ccc(F)cc1F (stereo unspecified)								MIC (Candida albicans [1]; Candida albicans, read-out: MIC): 3.9 to 62.5 ng/mL (≈ 7.99 to 128 nM); MIC (Candida parapsilosis; [6]): 3.9 to 62.5 ng/mL (≈ 7.99 to 128 nM); MIC (Candida tropicalis; Candida tropicalis, read-out: MIC): 3.9 to 62.5 ng/mL (≈ 7.99 to 128 nM); MIC (Kluyveromyces marxianus; Kluyveromyces marxianus, read-out: MIC): 3.9 to 62.5 ng/mL (≈ 7.99 to 128 nM); MIC (Cryptococcus neoformans [2]; [7]): 3.9 to 62.5 ng/mL (≈ 7.99 to 128 nM); MIC (Trichophyton rubrum; [5]): 3.9 to 62.5 ng/mL (≈ 7.99 to 128 nM)
O=C1S/C(=C\c2ccco2)C(=O)N1CC(O)(Cn1cncn1)c1ccc(F)cc1F (stereo unspecified)								MIC80 (Candida albicans [3]): 0.03 to 0.15 µM (≈ 0.013 to 0.0649 µg/mL); MIC80 (Cryptococcus neoformans [4]): 0.12 µM (≈ 0.0519 µg/mL)
CN(CCOc1ccc(CC2SC(=O)N(CC(O)(Cn3cncn3)c3ccc(F)cc3F)C2=O)cc1)c1ccccn1 (stereo unspecified)								MIC80 (Candida albicans [3]): 6.72 µM (≈ 4 µg/mL); MIC80 (Cryptococcus neoformans [4]): 13.4 µM (≈ 8 µg/mL)
CCCCCCc1cnn(Cn2cc(CC(O)(Cn3cncn3)c3ccc(F)cc3F)nn2)n1 (stereo unspecified)								MIC (Candida parapsilosis; [6]): 3 ng/mL (≈ 6.36 nM); MIC (Cryptococcus neoformans [2]; [7]): 0.15 ng/mL (≈ 0.318 nM)
C#CCN(Cc1ccccc1Cl)CC(O)(Cn1cncn1)c1ccc(F)cc1F (stereo unspecified)	0.24 to 250 ng/mL	0.24 to 250 ng/mL	0.24 to 250 ng/mL	0.24 to 250 ng/mL	0.24 to 250 ng/mL	0.24 to 250 ng/mL	0.24 to 250 ng/mL	
C#CCN(Cc1ccc(Br)cc1)CC(O)(Cn1cncn1)c1ccc(F)cc1F (stereo unspecified)	0.24 to 250 ng/mL	0.24 to 250 ng/mL	0.24 to 250 ng/mL	0.24 to 250 ng/mL	0.24 to 250 ng/mL	0.24 to 250 ng/mL	0.24 to 250 ng/mL	
C#CCN(Cc1ccc(OC)cc1)CC(O)(Cn1cncn1)c1ccc(F)cc1F (stereo unspecified)	0.24 to 250 ng/mL	0.24 to 250 ng/mL	0.24 to 250 ng/mL	0.24 to 250 ng/mL	0.24 to 250 ng/mL	0.24 to 250 ng/mL	0.24 to 250 ng/mL	
C#CCN(Cc1ccccc1[N+](=O)[O-])CC(O)(Cn1cncn1)c1ccc(F)cc1F (stereo unspecified)	0.24 to 250 ng/mL	0.24 to 250 ng/mL	0.24 to 250 ng/mL	0.24 to 250 ng/mL	0.24 to 250 ng/mL	0.24 to 250 ng/mL	0.24 to 250 ng/mL	
C#CCN(Cc1ccccc1)CC(O)(Cn1cncn1)c1ccc(F)cc1F (stereo unspecified)	0.24 to 250 ng/mL	0.24 to 250 ng/mL	0.24 to 250 ng/mL	0.24 to 250 ng/mL	0.24 to 250 ng/mL	0.24 to 250 ng/mL	0.24 to 250 ng/mL	
C#CCN(Cc1ccccc1Br)CC(O)(Cn1cncn1)c1ccc(F)cc1F (stereo unspecified)	0.24 to 250 ng/mL	0.24 to 250 ng/mL	0.24 to 250 ng/mL	0.24 to 250 ng/mL	0.24 to 250 ng/mL	0.24 to 250 ng/mL	0.24 to 250 ng/mL	
C#CCN(Cc1cccc(C)c1)CC(O)(Cn1cncn1)c1ccc(F)cc1F (stereo unspecified)	0.24 to 250 ng/mL	0.24 to 250 ng/mL	0.24 to 250 ng/mL	0.24 to 250 ng/mL	0.24 to 250 ng/mL	0.24 to 250 ng/mL	0.24 to 250 ng/mL	
Cc1cccc(-c2cn(CC(O)(Cn3cncn3)c3ccc(F)cc3F)nn2)c1 (stereo unspecified)								MIC (Trichophyton rubrum; [5]): 250 ng/mL (≈ 631 nM)
C#CCN(Cc1ccccc1C)CC(O)(Cn1cncn1)c1ccc(F)cc1F (stereo unspecified)	0.24 to 250 ng/mL	0.24 to 250 ng/mL	0.24 to 250 ng/mL	0.24 to 250 ng/mL	0.24 to 250 ng/mL	0.24 to 250 ng/mL	0.24 to 250 ng/mL	
C#CCN(Cc1cccc(C#N)c1)CC(O)(Cn1cncn1)c1ccc(F)cc1F (stereo unspecified)	0.24 to 250 ng/mL	0.24 to 250 ng/mL	0.24 to 250 ng/mL	0.24 to 250 ng/mL	0.24 to 250 ng/mL	0.24 to 250 ng/mL	0.24 to 250 ng/mL	
O=C1S/C(=C\c2ccoc2)C(=O)N1CC(O)(Cn1cncn1)c1ccc(F)cc1F (stereo unspecified)								MIC80 (Candida albicans [3]): 0.03 to 0.15 µM (≈ 0.013 to 0.0649 µg/mL); MIC80 (Cryptococcus neoformans [4]): 0.12 µM (≈ 0.0519 µg/mL)

SMILES	MIC (Candida albicans [1])	MIC (Candida parapsilosis)	MIC (Candida tropicalis)	MIC (Kluyveromyces marxianus)	MIC (Cryptococcus neoformans [2])	MIC (Trichophyton rubrum)	MIC (Aspergillus fumigatus)	also measured
C#CCN(Cc1ccc(F)cc1)CC(O)(Cn1cncn1)c1ccc(F)cc1F (stereo unspecified)	0.24 to 250 ng/mL	0.24 to 250 ng/mL	0.24 to 250 ng/mL	0.24 to 250 ng/mL	0.24 to 250 ng/mL	0.24 to 250 ng/mL	0.24 to 250 ng/mL	
O=C1S/C(=C\c2ccc(Cl)cc2Cl)C(=O)N1CC(O)(Cn1cncn1)c1ccc(F)cc1F (stereo unspecified)								MIC80 (Candida albicans [3]): 0.03 to 0.15 µM (≈ 0.0153 to 0.0767 µg/mL); MIC80 (Cryptococcus neoformans [4]): 0.12 µM (≈ 0.0614 µg/mL)
C#CCN(Cc1cccc(Br)c1)CC(O)(Cn1cncn1)c1ccc(F)cc1F (stereo unspecified)	0.24 to 250 ng/mL	0.24 to 250 ng/mL	0.24 to 250 ng/mL	0.24 to 250 ng/mL	0.24 to 250 ng/mL	0.24 to 250 ng/mL	0.24 to 250 ng/mL	
C#CCN(Cc1cccc([N+](=O)[O-])c1)CC(O)(Cn1cncn1)c1ccc(F)cc1F (stereo unspecified)	0.24 to 250 ng/mL	0.24 to 250 ng/mL	0.24 to 250 ng/mL	0.24 to 250 ng/mL	0.24 to 250 ng/mL	0.24 to 250 ng/mL	0.24 to 250 ng/mL	
OC(Cc1cn(Cn2ncc(CC3CCCCC3)n2)nn1)(Cn1cncn1)c1ccc(F)cc1F (stereo unspecified)								MIC (Candida parapsilosis; [6]): 3 ng/mL (≈ 6.2 nM); MIC (Cryptococcus neoformans [2]; [7]): 0.15 ng/mL (≈ 0.31 nM)
CCCc1ccc(-c2nnc(SCc3cn(CC(O)(Cn4cncn4)c4ccc(F)cc4F)nn3)o2)cc1 (stereo unspecified)								MIC80 (Candida albicans [1]; Candida albicans): 500 ng/mL (≈ 928 nM)
C#CCN(Cc1ccc(Cl)cc1)CC(O)(Cn1cncn1)c1ccc(F)cc1F (stereo unspecified)	0.24 to 250 ng/mL	0.24 to 250 ng/mL	0.24 to 250 ng/mL	0.24 to 250 ng/mL	0.24 to 250 ng/mL	0.24 to 250 ng/mL	0.24 to 250 ng/mL	
C#CCN(Cc1ccccc1C#N)CC(O)(Cn1cncn1)c1ccc(F)cc1F (stereo unspecified)	0.24 to 250 ng/mL	0.24 to 250 ng/mL	0.24 to 250 ng/mL	0.24 to 250 ng/mL	0.24 to 250 ng/mL	0.24 to 250 ng/mL	0.24 to 250 ng/mL	
C#CCN(Cc1cccc(F)c1)CC(O)(Cn1cncn1)c1ccc(F)cc1F (stereo unspecified)	0.24 to 250 ng/mL	0.24 to 250 ng/mL	0.24 to 250 ng/mL	0.24 to 250 ng/mL	0.24 to 250 ng/mL	0.24 to 250 ng/mL	0.24 to 250 ng/mL	
C#CCN(Cc1ccccc1F)CC(O)(Cn1cncn1)c1ccc(F)cc1F (stereo unspecified)	0.24 to 250 ng/mL	0.24 to 250 ng/mL	0.24 to 250 ng/mL	0.24 to 250 ng/mL	0.24 to 250 ng/mL	0.24 to 250 ng/mL	0.24 to 250 ng/mL	
C#CCN(Cc1ccc(Cl)cc1Cl)CC(O)(Cn1cncn1)c1ccc(F)cc1F (stereo unspecified)	0.24 to 250 ng/mL	0.24 to 250 ng/mL	0.24 to 250 ng/mL	0.24 to 250 ng/mL	0.24 to 250 ng/mL	0.24 to 250 ng/mL	0.24 to 250 ng/mL	
C#CCN(Cc1ccc(C#N)cc1)CC(O)(Cn1cncn1)c1ccc(F)cc1F (stereo unspecified)	0.24 to 250 ng/mL	0.24 to 250 ng/mL	0.24 to 250 ng/mL	0.24 to 250 ng/mL	0.24 to 250 ng/mL	0.24 to 250 ng/mL	0.24 to 250 ng/mL	
C#CCN(Cc1c(Cl)cccc1Cl)CC(O)(Cn1cncn1)c1ccc(F)cc1F (stereo unspecified)	0.24 to 250 ng/mL	0.24 to 250 ng/mL	0.24 to 250 ng/mL	0.24 to 250 ng/mL	0.24 to 250 ng/mL	0.24 to 250 ng/mL	0.24 to 250 ng/mL	
C#CCN(Cc1ccc(C)cc1)CC(O)(Cn1cncn1)c1ccc(F)cc1F (stereo unspecified)	0.24 to 250 ng/mL	0.24 to 250 ng/mL	0.24 to 250 ng/mL	0.24 to 250 ng/mL	0.24 to 250 ng/mL	0.24 to 250 ng/mL	0.24 to 250 ng/mL	
C#CCN(Cc1ccc([N+](=O)[O-])cc1)CC(O)(Cn1cncn1)c1ccc(F)cc1F (stereo unspecified)	0.24 to 250 ng/mL	0.24 to 250 ng/mL	0.24 to 250 ng/mL	0.24 to 250 ng/mL	0.24 to 250 ng/mL	0.24 to 250 ng/mL	0.24 to 250 ng/mL	
Cc1ccccc1-c1nnc(SCc2cn(CC(O)(Cn3cncn3)c3ccc(F)cc3F)nn2)o1 (stereo unspecified)								MIC80 (Candida albicans [1]; Candida albicans): 500 ng/mL (≈ 979 nM)
